Reference: patent EP0351029B1, “Novel glucose isomerase enzymes and their use” (GENENCOR INTERNATIONAL, INC., priority 1988, dated 1990)

Experiments:
[1] = target: T1, Actinoplanes missouriensis glucose isomerase (EcoAmi(DSM) GI), mutant G70S;A73S;G74T (Actinoplanes missouriensis, UniProt P12851, A73S/G70S/G74T); type: biochemical; conditions: D-xylose as substrate, coupled assay, 35°C, pH 7.5, 10mM MgSO4
T1 construct: made in house; host or cells: E. coli K514 (mutated pMa5-I / pMc5-I)
Description: (§1) In the D-Sorbitol Dehydrogenase Coupled Assay, enzymatic determination of D-xylulose was performed at 35°C as previously described (Kersters-Hilderson et al., Enzyme Microb. Technol. 9 (1987) 145) in 50mM triethanolamine, pH 7.5, 10mM MgSO4, and 0.1 M xylose, in the presence of ± 2 x 10^-8 M D-sorbitol dehydrogenase (L-iditol : NAD oxido-reductase, EC 1.1.14), and 0.15 nM NADH, except that the incubation buffer also included 1mM ethylenebis(oxyethylene-nitrilo)tetraacetic acid (EGTA). Glucose isomerase final concentration in this assay was ± 2.5 x 10^-3 mg/ml, and precisely determined as described above.
(§2) With glucose as a substrate GI activity can be assayed by the measurement of D-fructose produced during the isomerization reaction using the cysteine-carbazole method (CCM) which is based on the reaction of ketosugars with carbazole in acids to yield a purple product (Dische and Borenfreund, 1951).
(§3) • Spa = specific activity in micromoles of product (D-xylulose or D-fructose) per minute (unit), per mg of enzyme. • Vmax is expressed in units per mg of enzyme. • KM is the Michaelis constant, expressed in mM. • ND = not determined.

[2] = target: T2, Actinoplanes missouriensis glucose isomerase (EcoAmi(DSM) GI), wildtype (WT-GI) (Actinoplanes missouriensis, UniProt P12851); test: Catalytic parameters with D-xylose (D-sorbitol dehydrogenase coupled assay) or D-glucose (cysteine-carbazole method) as substrate; type: biochemical; conditions: 35°C, pH 7.5, 10mM MgSO4
T2 construct: made in house; host or cells: E. coli K514 (pMa5-I / pMc5-I)
Description: as §1, §2, §3

T2 sequence (P12851 whole entry): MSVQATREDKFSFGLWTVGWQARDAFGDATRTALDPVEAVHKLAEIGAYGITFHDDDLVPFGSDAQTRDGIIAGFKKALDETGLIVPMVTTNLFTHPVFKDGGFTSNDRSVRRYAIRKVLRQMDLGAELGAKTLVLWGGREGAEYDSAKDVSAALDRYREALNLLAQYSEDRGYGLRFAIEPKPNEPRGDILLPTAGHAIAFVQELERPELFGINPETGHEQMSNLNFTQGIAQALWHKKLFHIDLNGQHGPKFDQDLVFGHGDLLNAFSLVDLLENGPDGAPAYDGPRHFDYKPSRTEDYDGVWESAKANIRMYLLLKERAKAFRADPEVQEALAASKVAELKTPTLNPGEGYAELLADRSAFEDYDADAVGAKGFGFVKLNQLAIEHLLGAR
T1 sequence (P12851 whole entry G70S/A73S/G74T): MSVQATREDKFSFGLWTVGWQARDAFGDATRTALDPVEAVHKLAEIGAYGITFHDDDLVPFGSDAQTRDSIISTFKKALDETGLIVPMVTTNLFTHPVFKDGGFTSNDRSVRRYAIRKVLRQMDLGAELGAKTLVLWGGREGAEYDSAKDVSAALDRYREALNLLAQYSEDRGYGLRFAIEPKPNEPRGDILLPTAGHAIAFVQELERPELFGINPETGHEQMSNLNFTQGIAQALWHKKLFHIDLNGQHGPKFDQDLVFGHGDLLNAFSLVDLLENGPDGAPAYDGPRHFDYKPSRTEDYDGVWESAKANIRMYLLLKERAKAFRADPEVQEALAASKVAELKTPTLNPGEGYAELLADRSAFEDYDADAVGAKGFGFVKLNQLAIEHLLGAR

SMILES: O=C[C@H](O)[C@@H](O)[C@H](O)CO [Xylose, D-xylose]
- Km (Xylose) [1]: 5.3 mM
- Vmax (Xylose) [1]: 24.9 units per mg of enzyme
- Km [2]: 4.8 mM
- Vmax (Xylose) [2]: 24.2 units per mg of enzyme
